Experimental data: ChEMBL document CHEMBL1201862, “PubChem BioAssay data set” (2004)
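Five compound concentrations were applied to cells in 96-well plates for 48 hours; endpoints were derived by simple linear interpolation of the resulting dose-response curve. GI50 = concentration required for 50% inhibition of growth.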 Activity calls are given as the source filed them. Cut-off read from the data, not from the text of the source: active = GI50 up to about 1.1 µM and inactive = higher.

Columns and labels:
Experiment in all cases: inhibition of tumour cell growth, NCI panel, 48 h
[1] = system: HCC 2998
[2] = system: HOP-62
[3] = system: HOP-92
[4] = system: LOX IMVI
[5] = system: MCF7
[6] = system: MOLT-4
[7] = system: NCI-H226
[8] = system: NCI-H460
[9] = system: NCI/ADR-RES
[10] = system: OVCAR-3
[11] = system: OVCAR-8
[12] = system: PC-3
[13] = system: RXF 393
[14] = system: SK-MEL-2
[15] = system: SK-MEL-5
[16] = system: SW-620
[17] = system: TK-10
[18] = system: UACC-257
[19] = system: SF-268
[20] = system: SNB-19

Measured: GI50

OCC1CCC(n2cnc3c(O)ncnc32)O1 (stereo not given)
inactive: [1] > 100 µM | [2] > 100 µM | [3] > 100 µM | [4] > 100 µM | [5] > 100 µM | [6] > 100 µM | [7] > 100 µM | [8] > 100 µM | [9] > 100 µM | [10] > 100 µM | [11] > 100 µM | [12] > 1000 µM | [13] > 100 µM | [14] > 100 µM | [15] > 100 µM | [16] > 100 µM | [17] > 1000 µM | [18] > 87.9 µM

COC(=O)NCCc1n[nH]c2c1C(=O)C=C(N1CCOCC1)C2=O
inactive: [1] > 100 µM | [2] > 100 µM | [3] > 100 µM | [4] > 100 µM | [5] > 100 µM | [6] > 100 µM | [7] > 100 µM | [8] > 100 µM | [9] > 100 µM | [10] > 100 µM | [11] > 100 µM | [12] > 100 µM | [13] > 100 µM | [19] > 100 µM | [14] > 100 µM | [15] > 100 µM | [20] > 100 µM | [16] > 100 µM | [17] > 100 µM | [18] > 100 µM

COc1cc(S(=O)(=O)Nc2ccc(-c3csc(N4C(=O)C(Cl)C4c4cccs4)n3)cc2)ccc1Cl (stereo not given)
inactive: [1] 50.5 µM | [2] > 100 µM | [3] 19.7 µM | [4] 2.43 µM | [5] 29.5 µM | [6] 11.4 µM | [7] 46 µM | [8] 71.6 µM | [9] > 100 µM | [10] > 100 µM | [11] 70.6 µM | [12] > 100 µM | [13] 23.5 µM | [19] 39 µM | [14] > 100 µM | [15] 93.8 µM | [20] > 100 µM | [16] 43.4 µM | [18] 28.1 µM

CCNC(=O)c1cc(/C=C/c2ccc([N+](=O)[O-])o2)nc2ccccc12
active: [6] 0.276 µM
inactive: [1] 5.26 µM | [2] 19.6 µM | [3] > 22.4 µM | [4] 2.85 µM | [5] 6.4 µM | [7] 5.15 µM | [8] 1.8 µM | [9] 51.4 µM | [10] > 62.4 µM | [11] 15.8 µM | [12] > 100 µM | [13] 10.2 µM | [19] 23.7 µM | [14] 3.52 µM | [15] 1.5 µM | [20] 54.7 µM | [16] 13.7 µM | [18] 3.67 µM

Cc1[nH]c(=O)nc(N/N=C/c2ccc(Cl)cc2)c1C(=O)Nc1ccc(Cl)cc1
inactive: [1] > 100 µM | [2] 10.6 µM | [3] 28.8 µM | [4] 14.9 µM | [5] > 65.5 µM | [6] 45.5 µM | [7] > 100 µM | [8] 10.4 µM | [9] 34.1 µM | [10] 8.97 µM | [11] 10.2 µM | [12] > 60.1 µM | [13] 23 µM | [19] 41.8 µM | [14] 76.6 µM | [15] 18 µM | [20] 7.41 µM | [16] 16.6 µM | [17] 27.6 µM | [18] 31 µM

NC(=O)Nc1ccc(C(=O)NCCCNC(=O)c2ccc(NC(N)=O)cc2)cc1
inactive: [1] > 100 µM | [2] > 100 µM | [3] > 100 µM | [4] > 100 µM | [5] > 100 µM | [6] > 100 µM | [7] > 100 µM | [8] > 100 µM | [9] > 100 µM | [11] > 100 µM | [12] > 100 µM | [13] > 100 µM | [19] > 100 µM | [14] > 100 µM | [15] > 100 µM | [20] > 100 µM | [16] > 100 µM | [17] > 100 µM | [18] > 100 µM

Cc1cccc2c(N)c3cccc(C(=O)NCC[N+](C)(C)Cc4sc(N5CCOCC5)nc4[N+](=O)[O-])c3nc12
inactive: [1] 1.41 µM | [3] 15.2 µM | [7] 1.51 µM | [9] 3.12 µM | [10] 2.09 µM | [11] 2.12 µM | [12] 3.37 µM | [13] 4.36 µM | [19] 23 µM | [14] 22.6 µM | [15] 5.01 µM | [20] 4.82 µM | [17] 10.3 µM | [18] 6.9 µM
active: [2] 0.491 µM | [4] 0.685 µM | [5] 0.438 µM | [6] 0.231 µM | [16] 0.6 µM

CC1(C)OCC([C@H]2O[C@@H](CC(=S)NCCCCCCCCCCCCNC(=S)C[C@H]3O[C@@H](C4COC(C)(C)O4)[C@H]4OC(C)(C)O[C@H]43)[C@H]3OC(C)(C)O[C@H]32)O1 (stereo not given in full)
inactive: [1] 75.7 µM | [2] > 100 µM | [3] > 100 µM | [4] 79.1 µM | [5] 24.4 µM | [6] 15.8 µM | [7] > 100 µM | [8] 25.6 µM | [9] 25.9 µM | [10] 74.5 µM | [11] 53.5 µM | [12] 25.5 µM | [13] > 100 µM | [19] > 100 µM | [14] 58.5 µM | [15] 23.7 µM | [16] > 100 µM | [17] > 100 µM | [18] 42.5 µM

COC(=O)/C(=C\Nc1cccc(C)n1)S(=O)(=O)c1ccc(C)cc1
inactive: [1] > 100 µM | [2] > 100 µM | [3] 54.5 µM | [4] 79.4 µM | [5] 68.2 µM | [6] 28.6 µM | [7] 36.5 µM | [8] 61.7 µM | [9] 76.4 µM | [10] 86.3 µM | [11] 77.6 µM | [12] 38.8 µM | [13] 70.8 µM | [19] 96.2 µM | [14] 33.4 µM | [15] 36.8 µM | [20] 39.2 µM | [16] 27.1 µM | [17] 96.2 µM | [18] 69.2 µM

CC(=O)OC1CCn2c1nc1cc([N+](=O)[O-])c(C)cc12 (stereo not given)
inactive: [1] > 100 µM | [3] > 100 µM | [4] > 100 µM | [5] > 100 µM | [6] > 100 µM | [7] > 100 µM | [8] > 100 µM | [9] > 100 µM | [10] > 100 µM | [11] > 100 µM | [12] > 100 µM | [13] > 100 µM | [19] > 100 µM | [14] > 100 µM | [15] > 100 µM | [20] > 100 µM | [16] > 100 µM | [18] > 100 µM

Nc1ccc(/N=N/c2ccccc2)cc1
inactive: [1] 61.5 µM | [2] 42 µM | [3] 30.6 µM | [4] 26.7 µM | [5] 30.5 µM | [6] 11.7 µM | [7] 25.4 µM | [8] 29.1 µM | [9] 34.8 µM | [10] 18.8 µM | [11] 28 µM | [12] 56.8 µM | [13] 20.1 µM | [14] 22.6 µM | [15] 53.5 µM | [20] 84.1 µM | [16] 51.8 µM | [17] 47.9 µM | [18] > 100 µM

CCN1/C(=C/C#C/C(C)=C\c2sc3ccc(Cl)cc3[n+]2CC)Sc2ccc(Cl)cc21
inactive: [1] 4.07 µM | [2] 4.88 µM | [3] 1.58 µM | [4] 3.31 µM | [5] 3.73 µM | [7] 3.82 µM | [8] 3.02 µM | [9] 15.7 µM | [11] 3.24 µM | [12] 2.33 µM | [13] 5.6 µM | [19] 5.22 µM | [14] 1.98 µM | [15] 2.09 µM | [20] 4.09 µM | [16] 2.43 µM | [17] 4.28 µM | [18] 3.34 µM

CSc1nc(Cl)c(Br)c(Nc2cnc(O)nc2O)n1
inactive: [1] 17.8 µM | [2] 16.9 µM | [3] 13.1 µM | [4] 19.4 µM | [5] 38 µM | [6] 13.4 µM | [7] 20.1 µM | [9] 19.7 µM | [10] 14.6 µM | [11] 15.6 µM | [12] 18.8 µM | [13] 22.1 µM | [14] 17.5 µM | [15] 19.6 µM | [20] 20.2 µM | [16] 27.1 µM | [17] 14.7 µM | [18] 19.2 µM

CC1(C)CCCCCC(C)(CCCO)C1=O (stereo not given)
inactive: [1] > 100 µM | [2] > 100 µM | [3] > 100 µM | [4] > 100 µM | [5] > 100 µM | [6] > 100 µM | [7] > 100 µM | [8] > 100 µM | [9] > 100 µM | [10] > 100 µM | [11] > 100 µM | [12] > 100 µM | [13] > 100 µM | [19] > 100 µM | [14] > 100 µM | [15] > 100 µM | [20] > 100 µM | [16] > 100 µM | [18] > 100 µM
